In one test the target is T1, Leucine aminopeptidase (Plasmodium falciparum 3D7, UniProt Q8IL11).
T1 sequence (Q8IL11 whole entry): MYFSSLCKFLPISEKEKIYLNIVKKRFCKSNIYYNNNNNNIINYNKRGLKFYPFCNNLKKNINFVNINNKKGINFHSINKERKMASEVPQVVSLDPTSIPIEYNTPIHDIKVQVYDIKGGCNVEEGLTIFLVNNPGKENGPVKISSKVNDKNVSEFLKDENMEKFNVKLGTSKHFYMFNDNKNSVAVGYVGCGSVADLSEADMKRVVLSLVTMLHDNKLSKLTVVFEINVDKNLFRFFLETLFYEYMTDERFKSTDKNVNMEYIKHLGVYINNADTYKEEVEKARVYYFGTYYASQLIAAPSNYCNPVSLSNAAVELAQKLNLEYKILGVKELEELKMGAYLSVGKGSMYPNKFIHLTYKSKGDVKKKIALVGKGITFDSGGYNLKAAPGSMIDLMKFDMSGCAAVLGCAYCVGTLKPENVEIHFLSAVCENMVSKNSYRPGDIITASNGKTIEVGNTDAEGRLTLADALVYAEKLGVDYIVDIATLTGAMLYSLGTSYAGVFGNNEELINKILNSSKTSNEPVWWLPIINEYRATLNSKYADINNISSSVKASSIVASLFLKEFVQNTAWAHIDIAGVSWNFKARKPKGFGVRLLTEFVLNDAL
In words: P. falciparum M17LAP inhibitors, primary screen, biochemical, fluorogenic H-Leu-NHMec substrate, 1536-well (AID 1619). The test is classed as functional.

A further test addresses Cytochrome P450 2C19 (Homo sapiens, UniProt P33261). In words: Cytochrome panel assay with activity outcomes. Panel member name: p450-cyp2c19 Compounds with AC50 equal or less than 10 uM are considered active. As to conditions: read-out: AC50. It counts as functional.
For the next test, the target named is T2, Cytochrome P450 1A2 (Homo sapiens, UniProt P05177).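 Note: PubChem cytochrome P450 panel assay, CYP1A2 panel member.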
T2 sequence (P05177 whole entry): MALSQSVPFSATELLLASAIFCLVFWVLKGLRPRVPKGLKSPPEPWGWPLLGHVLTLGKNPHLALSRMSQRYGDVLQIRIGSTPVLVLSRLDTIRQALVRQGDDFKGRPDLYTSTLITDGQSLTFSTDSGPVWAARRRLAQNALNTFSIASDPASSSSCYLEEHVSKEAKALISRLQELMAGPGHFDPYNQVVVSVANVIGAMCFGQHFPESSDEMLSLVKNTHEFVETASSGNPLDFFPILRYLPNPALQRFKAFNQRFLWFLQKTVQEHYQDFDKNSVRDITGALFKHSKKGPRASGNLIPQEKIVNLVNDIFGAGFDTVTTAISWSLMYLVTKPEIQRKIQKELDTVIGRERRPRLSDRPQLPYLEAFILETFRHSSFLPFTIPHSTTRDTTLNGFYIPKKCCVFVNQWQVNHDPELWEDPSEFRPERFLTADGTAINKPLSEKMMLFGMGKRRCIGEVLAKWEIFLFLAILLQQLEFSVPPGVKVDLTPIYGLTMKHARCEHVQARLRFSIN

The target of a further test is Cytochrome P450 2C9 (Homo sapiens, UniProt P11712).
Test [1] deals with T3, Short transient receptor potential channel 4 (Mus musculus, UniProt Q9QUQ5).
T3 sequence (Q9QUQ5 whole entry): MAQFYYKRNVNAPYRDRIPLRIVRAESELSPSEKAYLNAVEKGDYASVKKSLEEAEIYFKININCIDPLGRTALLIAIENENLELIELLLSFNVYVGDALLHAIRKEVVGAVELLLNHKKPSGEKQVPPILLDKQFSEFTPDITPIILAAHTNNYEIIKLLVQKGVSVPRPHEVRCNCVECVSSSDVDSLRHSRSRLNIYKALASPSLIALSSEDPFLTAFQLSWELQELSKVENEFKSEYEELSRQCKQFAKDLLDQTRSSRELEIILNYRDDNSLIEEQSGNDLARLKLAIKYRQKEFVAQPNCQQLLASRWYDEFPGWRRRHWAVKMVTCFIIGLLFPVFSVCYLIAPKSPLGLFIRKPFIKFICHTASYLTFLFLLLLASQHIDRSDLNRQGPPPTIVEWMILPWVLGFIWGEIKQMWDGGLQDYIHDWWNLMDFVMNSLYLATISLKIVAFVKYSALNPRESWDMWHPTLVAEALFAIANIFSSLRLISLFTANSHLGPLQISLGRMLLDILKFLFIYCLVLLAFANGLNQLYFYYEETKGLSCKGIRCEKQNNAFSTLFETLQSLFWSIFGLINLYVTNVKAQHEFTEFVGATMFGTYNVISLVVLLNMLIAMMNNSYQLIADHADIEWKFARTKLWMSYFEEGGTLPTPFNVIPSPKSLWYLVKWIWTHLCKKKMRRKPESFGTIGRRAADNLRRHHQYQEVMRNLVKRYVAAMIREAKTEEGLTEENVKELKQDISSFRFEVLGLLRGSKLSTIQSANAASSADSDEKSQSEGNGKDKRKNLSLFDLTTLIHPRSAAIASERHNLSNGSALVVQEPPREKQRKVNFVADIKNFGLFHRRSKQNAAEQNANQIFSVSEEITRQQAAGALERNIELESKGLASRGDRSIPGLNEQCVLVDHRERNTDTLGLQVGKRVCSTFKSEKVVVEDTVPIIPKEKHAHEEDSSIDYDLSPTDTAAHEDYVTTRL
In words: calcium entry via TRPC4 opening agents – cell-based, HEK293 TRPC4/mu-opioid, Fluo-4 calcium, dose response (AID 434937). The test is classed as functional.

The target of test [2] is Delta-type opioid receptor (Homo sapiens, UniProt P41143). In words: Counterscreen for agonists of heterodimerization of the mu 1 (OPRM1) and delta 1 (OPRD1) opioid receptors: Luminescence-based cell-based high throughput dose response assay to identify agonists of OPRD1 homodimerization. [Related pubchem assays (depositor defined):AID504326, AID504355, AID504692, AID504904, AID504905]. The test is classed as functional. (In general: Counterscreens check selectivity or assay interference.)

The target of the next test is Mu-type opioid receptor (Homo sapiens, UniProt P35372). The experiment in a line: Counterscreen for agonists of heterodimerization of the mu 1 (OPRM1) and delta 1 (OPRD1) opioid receptors: Luminescence-based cell-based high throughput dose response assay to identify agonists of OPRM1 homodimerization. The test is classed as functional.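 Note: U2OS cells expressing OPRM1 and beta-arrestin as split beta-galactosidase partners.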
Test [3] deals with 5-hydroxytryptamine receptor 5A (Homo sapiens, UniProt P47898). The experiment in a line: Counterscreen for agonists of OPRM1-OPRD1 heterodimerization: luminescence-based cell-based high throughput dose response assay to identify agonists of 5-hydroxytryptamine (serotonin) 5A receptor (HTR5A). [Related pubchem assays (depositor defined):AID504326, AID504355, AID504692, AID504904, AID504905]. The test is classed as functional.

Test [4] concerns the target T4, DNA repair protein RAD52 homolog (Homo sapiens, UniProt P43351).
T4 sequence (P43351 whole entry): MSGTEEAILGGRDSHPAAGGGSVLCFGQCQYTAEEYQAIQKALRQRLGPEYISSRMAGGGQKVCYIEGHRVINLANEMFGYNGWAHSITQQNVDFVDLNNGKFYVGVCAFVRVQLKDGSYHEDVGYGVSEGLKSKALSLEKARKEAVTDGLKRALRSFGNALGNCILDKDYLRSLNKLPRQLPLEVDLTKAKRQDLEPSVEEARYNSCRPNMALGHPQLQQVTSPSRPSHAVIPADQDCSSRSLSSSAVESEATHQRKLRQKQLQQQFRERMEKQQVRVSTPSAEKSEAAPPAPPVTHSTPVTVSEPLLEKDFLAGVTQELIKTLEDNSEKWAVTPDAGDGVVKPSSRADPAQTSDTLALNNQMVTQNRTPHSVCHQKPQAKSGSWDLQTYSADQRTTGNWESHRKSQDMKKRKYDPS
The test is classed as functional, biochemical.

For test [5], the target named is Alkaline phosphatase, placental type (Homo sapiens, UniProt P05187). In words: human placental alkaline phosphatase inhibition – biochemical, luminescence, confirmation (AID 1512). The test is classed as functional.
The target in a further test is Paired box protein Pax-8 (Homo sapiens, UniProt Q06710). In words: PAX8 transcriptional activity inhibition in RMG-I – RMG-I cells, luciferase, cherry-pick, dose response (AID 687027).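 Note: luciferase reporter driven by Pax8 target thyroperoxidase promoter measured by SteadyGlo luminescence.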 The test is classed as functional, cell-based.
Test [6] in a line: IGROV1 cell killing – plate reader, dry powder samples, PAX8 inhibitor project, dose response (AID 743043). It counts as functional, cell-based. As to conditions: IGROV-1.
Test [7] deals with T5, Carboxy-terminal domain RNA polymerase II polypeptide A small phosphatase 1 (Homo sapiens, UniProt Q9GZU7).
T5 sequence (Q9GZU7 whole entry): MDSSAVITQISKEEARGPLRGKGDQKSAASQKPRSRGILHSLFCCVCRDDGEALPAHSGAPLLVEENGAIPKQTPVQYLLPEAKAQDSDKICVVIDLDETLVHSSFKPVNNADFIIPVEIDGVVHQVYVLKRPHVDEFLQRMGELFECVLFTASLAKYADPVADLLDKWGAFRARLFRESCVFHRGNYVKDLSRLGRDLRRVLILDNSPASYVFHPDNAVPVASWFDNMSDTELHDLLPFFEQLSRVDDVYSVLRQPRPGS
In words: CTDSP1 inhibitors, concentration-response, biochemical, absorbance readout, ultra-high-throughput screen actives (AID 540297). It counts as functional.

In test [8] the target is T6, Probable nicotinate-nucleotide adenylyltransferase (Staphylococcus aureus (strain N315), UniProt P65502). The test is classed as functional, Staphylococcus aureus subsp. aureus N315.
Test [9] has as its target T6, Probable nicotinate-nucleotide adenylyltransferase. The test is classed as functional, Staphylococcus aureus subsp. aureus N315. As to conditions: read-out: IC50_Mean.

Active and inactive are the calls of the source.
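Throughout, for IC50 Mean: confirmatory dose-response retesting of NadD inhibitor hits first found in an ultra-high-throughput screen.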

T6 sequence (P65502 whole entry): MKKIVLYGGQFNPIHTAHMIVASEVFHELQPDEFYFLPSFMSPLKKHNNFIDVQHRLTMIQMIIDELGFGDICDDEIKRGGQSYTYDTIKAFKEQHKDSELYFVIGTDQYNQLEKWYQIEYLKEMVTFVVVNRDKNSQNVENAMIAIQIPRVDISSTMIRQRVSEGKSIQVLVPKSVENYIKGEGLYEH
Paired box protein Pax-8, sequence (Q06710 whole entry): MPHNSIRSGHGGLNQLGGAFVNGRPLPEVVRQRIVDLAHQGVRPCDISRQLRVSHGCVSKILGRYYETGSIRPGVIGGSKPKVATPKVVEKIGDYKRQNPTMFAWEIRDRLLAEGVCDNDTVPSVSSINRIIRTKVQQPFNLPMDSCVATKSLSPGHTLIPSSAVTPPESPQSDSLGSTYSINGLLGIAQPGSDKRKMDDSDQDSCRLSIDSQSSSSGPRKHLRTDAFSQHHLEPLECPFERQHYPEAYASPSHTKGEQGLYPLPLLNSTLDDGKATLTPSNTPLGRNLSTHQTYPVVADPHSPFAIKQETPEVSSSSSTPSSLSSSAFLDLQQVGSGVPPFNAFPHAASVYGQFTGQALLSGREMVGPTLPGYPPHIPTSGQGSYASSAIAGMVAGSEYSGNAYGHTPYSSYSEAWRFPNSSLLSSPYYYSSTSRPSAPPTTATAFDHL
Mu-type opioid receptor, sequence (P35372 whole entry): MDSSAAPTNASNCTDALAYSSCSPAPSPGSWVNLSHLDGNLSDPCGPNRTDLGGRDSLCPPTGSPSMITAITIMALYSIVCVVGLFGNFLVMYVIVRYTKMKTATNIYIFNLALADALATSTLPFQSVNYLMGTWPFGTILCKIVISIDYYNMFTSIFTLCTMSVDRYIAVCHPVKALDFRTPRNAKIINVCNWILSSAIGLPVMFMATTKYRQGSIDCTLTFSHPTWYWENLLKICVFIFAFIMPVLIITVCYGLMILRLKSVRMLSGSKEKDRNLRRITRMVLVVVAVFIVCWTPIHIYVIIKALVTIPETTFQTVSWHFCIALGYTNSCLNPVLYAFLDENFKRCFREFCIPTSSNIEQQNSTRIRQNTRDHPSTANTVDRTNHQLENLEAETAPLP
Cytochrome P450 2C19, sequence (P33261 whole entry): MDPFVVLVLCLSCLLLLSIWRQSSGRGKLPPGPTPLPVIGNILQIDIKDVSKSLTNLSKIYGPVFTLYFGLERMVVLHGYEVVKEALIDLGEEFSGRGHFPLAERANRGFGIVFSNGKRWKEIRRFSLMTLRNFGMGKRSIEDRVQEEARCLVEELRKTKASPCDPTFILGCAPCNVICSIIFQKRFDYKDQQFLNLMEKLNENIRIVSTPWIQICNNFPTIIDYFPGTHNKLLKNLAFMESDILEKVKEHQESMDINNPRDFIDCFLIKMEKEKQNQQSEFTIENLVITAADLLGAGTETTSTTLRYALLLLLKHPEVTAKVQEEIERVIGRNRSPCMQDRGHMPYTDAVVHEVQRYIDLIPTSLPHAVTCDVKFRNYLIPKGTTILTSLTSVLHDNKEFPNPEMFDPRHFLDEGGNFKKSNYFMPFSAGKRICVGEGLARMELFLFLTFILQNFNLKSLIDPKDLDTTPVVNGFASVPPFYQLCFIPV
5-hydroxytryptamine receptor 5A, sequence (P47898 whole entry): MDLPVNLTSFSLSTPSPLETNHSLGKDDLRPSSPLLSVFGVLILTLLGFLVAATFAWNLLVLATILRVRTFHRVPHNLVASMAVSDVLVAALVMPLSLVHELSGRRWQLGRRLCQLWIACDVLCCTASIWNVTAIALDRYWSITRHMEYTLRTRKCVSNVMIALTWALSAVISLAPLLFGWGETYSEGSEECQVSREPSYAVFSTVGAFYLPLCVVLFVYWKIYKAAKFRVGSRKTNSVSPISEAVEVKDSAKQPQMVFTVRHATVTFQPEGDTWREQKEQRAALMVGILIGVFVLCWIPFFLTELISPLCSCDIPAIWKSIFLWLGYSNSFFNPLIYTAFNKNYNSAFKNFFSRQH
Cytochrome P450 2C9, sequence (P11712 whole entry): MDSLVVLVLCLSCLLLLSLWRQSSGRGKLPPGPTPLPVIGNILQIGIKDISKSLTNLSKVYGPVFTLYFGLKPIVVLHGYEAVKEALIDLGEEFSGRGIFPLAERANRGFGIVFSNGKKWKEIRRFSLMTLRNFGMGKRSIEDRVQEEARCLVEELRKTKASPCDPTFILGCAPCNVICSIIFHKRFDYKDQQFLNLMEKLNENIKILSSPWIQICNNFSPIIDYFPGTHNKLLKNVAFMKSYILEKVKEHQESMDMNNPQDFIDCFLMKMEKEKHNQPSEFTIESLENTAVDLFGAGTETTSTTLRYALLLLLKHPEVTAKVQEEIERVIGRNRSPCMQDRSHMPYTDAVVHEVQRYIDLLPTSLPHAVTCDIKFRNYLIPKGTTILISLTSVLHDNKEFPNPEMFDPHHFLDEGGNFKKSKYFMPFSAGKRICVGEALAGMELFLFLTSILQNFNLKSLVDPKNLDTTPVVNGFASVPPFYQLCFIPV
Alkaline phosphatase, placental type, sequence (P05187 whole entry): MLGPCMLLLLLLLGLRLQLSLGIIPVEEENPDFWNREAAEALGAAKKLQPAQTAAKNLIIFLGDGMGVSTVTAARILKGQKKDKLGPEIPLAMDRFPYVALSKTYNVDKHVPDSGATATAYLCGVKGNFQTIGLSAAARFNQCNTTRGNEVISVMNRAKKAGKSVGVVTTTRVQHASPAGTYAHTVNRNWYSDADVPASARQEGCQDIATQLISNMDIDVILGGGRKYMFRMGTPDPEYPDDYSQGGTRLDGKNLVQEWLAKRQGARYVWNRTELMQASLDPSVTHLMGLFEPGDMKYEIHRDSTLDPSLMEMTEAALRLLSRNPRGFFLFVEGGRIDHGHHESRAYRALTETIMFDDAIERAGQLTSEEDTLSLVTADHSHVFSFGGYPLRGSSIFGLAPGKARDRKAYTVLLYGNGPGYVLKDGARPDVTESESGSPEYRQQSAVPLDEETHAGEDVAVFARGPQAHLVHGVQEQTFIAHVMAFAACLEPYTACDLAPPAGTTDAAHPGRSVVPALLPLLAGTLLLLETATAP
Delta-type opioid receptor, sequence (P41143 whole entry): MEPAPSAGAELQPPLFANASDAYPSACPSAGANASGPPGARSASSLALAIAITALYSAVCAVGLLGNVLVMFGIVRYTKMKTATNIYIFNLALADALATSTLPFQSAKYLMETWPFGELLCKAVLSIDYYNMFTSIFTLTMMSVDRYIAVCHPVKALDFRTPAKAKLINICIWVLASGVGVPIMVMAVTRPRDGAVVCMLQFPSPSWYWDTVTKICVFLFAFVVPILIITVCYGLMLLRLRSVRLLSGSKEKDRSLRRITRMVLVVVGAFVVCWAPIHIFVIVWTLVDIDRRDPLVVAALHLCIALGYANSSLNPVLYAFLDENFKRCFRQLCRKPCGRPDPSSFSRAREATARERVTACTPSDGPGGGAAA

In the case of `Cc1ccc(N(CC(N)=O)C2SC(=O)N(Cc3cccc(C(=O)O)c3)C2=O)cc1` (centres undefined), the IC50 on Leucine aminopeptidase was 40.7 µM (active). In addition, the concentration at half-maximal activity (AC50) at Cytochrome P450 2C19 was 20 µM (inconclusive); at Cytochrome P450 1A2, 15.8 µM (inconclusive); on Cytochrome P450 2C9, 12.6 µM (inconclusive).

On to `Cc1cc(C(=O)COC(=O)c2ccc[nH]c2=O)c(C)n1CCc1ccc(F)cc1`, for which the IC50 at Leucine aminopeptidase is 18.2 µM (active).

For the compound `CC1CN(C)C(C)c2c1oc1ccc(N)cc21` (centres undefined), the EC50 in test [1] was 841 nM (active); in [2], > 92.5 µM (inactive); on Mu-type opioid receptor, > 92.5 µM (inactive); in test [3], > 92.5 µM (inactive). Besides, the concentration at half-maximal activity (AC50) in test [4] was 9.06 µM (active).

As for `CCOc1ccc(NC(=O)CSc2nnc(N)s2)c([N+](=O)[O-])c1`, the IC50 at Leucine aminopeptidase is 2.52 µM (active).

For `CCOC(=O)C(CSCC(=O)c1ccc(Br)cc1)NC(=O)OC(C)(C)C` (centres undefined), the IC50 on Leucine aminopeptidase was 62.2 µM (active).

In the case of `Cc1ccc(-n2ncc3c(NNC(=O)c4ccco4)ncnc32)c(C)c1`, the IC50 in test [5] was > 100 µM (inactive).

With `C[C@@H]1ON(C)[C@H]2C[C@H]3c4cc(-c5cc6ccccc6o5)ccc4CCN3C[C@@H]12`, the concentration at half-maximal activity (AC50) in [4] was 28.7 µM (active).

For the compound `C[C@H](CO)N1C[C@H](C)[C@H](CN(C)S(=O)(=O)c2ccc(F)cc2)OCCCC[C@H](C)Oc2ccc(NS(=O)(=O)c3ccc(Cl)cc3)cc2C1=O`, the AC50 was 10.1 µM (active) at Paired box protein Pax-8 and 54.7 µM (active) in [6].

`O=C(O)Cc1sc(N/N=C\c2ccccc2)nc1-c1ccccc1`: the IC50 in test [7] was 5.14 µM (active); in test [8], 9.86 µM (active); in [9], 27.7 µM (active).

Broadly, the AC50 is the concentration at which the activity in the assay is half-maximal. In general, EC50 refers to the concentration giving half of the maximal effect.

(Values after ChEMBL document CHEMBL1201862, “PubChem BioAssay data set” (2004).)
